# Results reported in patent US6852526B2, “Transdermal assay with magnetic clamp” (Transform Pharmaceuticals, Inc., priority 2000, dated 2005).
# Several values for one entry are separate records, joined by “and”; a condition that tells them apart may be missing. Equal values may be shown once. Where a name gives a salt, the structure may show the parent alone. Read-outs that look alike come from different tables or passages of the source.
# Assays:
# [1] = Experimental: Human cadaver skin epidermis was prepared by first separating skin from the underlying fat and then separating the epidermis by heat treatment at 60° C. for 90 seconds using standard techniques.
# An apparatus as described in FIG. 6 was assembled, wherein each plate in the apparatus was a rectangular shape having dimensions of 5.030″ (127.76 mm) by 3.365″ (85.48 mm). The apparatus was assembled by first placing a ⅛″ (3.175 mm) thick clear polycarbonate spacer plate 620 on top of an aluminum base plate 610 and aligning screw holes 622 in the spacer plate with screw holes 612 in the base plate. Thereafter, a 4×4 sample array was created on spacer plate 620, as described in Table 2 below:
# Punched samples were placed on spacer plate 620 in the 4×4 array of Table 2 one at a time, and the location of each array sample was selected using guide marks 614 on base plate 610 to ensure that each array sample was placed such that it aligned with a donor reservoir 654 in reservoir plate 650. There were 96, 0.020″ (0.508 mm) deep, guide marks 614 on base plate 610, arranged in a 12×8 array which was located 11.24 mm in from the edges of the long sides of base plate 610, and 14.38 mm in from the edges of its short sides. At the time of placement, the release liner on each sample was removed to expose the drug reservoir/adhesive of the sample.
# Array locations B3, C1, and D3 were controls without any samples in order to determine the potential impact of lateral diffusion on transdermal transport measurements with this apparatus.
# Once all the samples were placed in the array, the piece of heat-stripped human cadaver skin, the size of which was larger than the array of samples, was gently and slowly placed over the samples so as to avoid any air pockets between the skin and the samples. The skin was oriented with the stratum corneum next to the samples. Then, a ¼″ (6.35 mm) thick clear polycarbonate reservoir plate 650 having an 4×4 array of ¼″ (6.35 mm) diameter donor reservoirs 654 was placed over the skin such that all of screw holes 652 on reservoir plate 650 were aligned with the corresponding screw holes 622 of spacer plate 620.
# The resulting assembled apparatus 600 was clamped together by sliding a shoulder screw 660 with threads 622 through aligned screw holes 652 at each of the four corners of the assembled apparatus, and tightening each shoulder screw 660 so as to form a seal between reservoir plate 650 and the skin.
# […] of Dulbecco's Phosphate Buffered Saline (PBS) was added to each donor reservoir in the array as the reservoir medium.
# After 2 hours, a […] test aliquot of reservoir medium was removed from each donor reservoir 654, and at that time, an additional […] of PBS was added into each donor reservoir 654. Each of the 2-hour test aliquots was placed in an HPLC vial and diluted to […] by addition of […] of 50:50 (v/v) 50 mM potassium phosphate (adjusted to pH 3.0 with phosphoric acid) and acetonitrile.
# The foregoing process was repeated at 3 hours, 4 hours, and 5 hours.
# The components of the HPLC system used to analyze the test aliquots were a Waters 2790 Separations Module, a Waters Photodiode Array Detector Model 996, and Waters Millennium 32 v3.2 Chromatography Software (Waters Corp., Milford Mass.).
# The HPLC analysis was performed using a Platinum EPS C18 column (Alltech Associates, Muskegan, Mich.) with dimensions of 250 mm×4.6 mm and a […] particle size. The mobile phase was 50:50 (v/v) 50 mM potassium phosphate (adjusted to pH 3.0 with phosphoric acid): acetonitrile, with a flow rate of 1.0 ml/minute. Detection was performed by measuring UV absorbance at a wavelength of 260 nm. The run time was 4 minutes. Injection volume was […]. Column temperature was ambient.
# [2] = passive experiments; cited from earlier work
# [3] = cited from earlier work
# [4] = empty control location (B3, C1, D3), no sample: lateral diffusion, 2 hour
# [5] = empty control location (B3, C1, D3), no sample: lateral diffusion, 3 hour
# [6] = empty control location (B3, C1, D3), no sample: lateral diffusion, 4 hour
# [7] = sample* (A4, D1): drug reservoir came off the backing with the release liner, 2 hour
# [8] = sample* (A4, D1): drug reservoir came off the backing with the release liner, 3 hour
# [9] = sample* (A4, D1): drug reservoir came off the backing with the release liner, 4 hour
# [10] = sample* (A4, D1): drug reservoir came off the backing with the release liner, 5 hour
compound,measurement,setting,value
"CN1CCCC1c1cccnc1 (centres unmarked) [Nicotine, nicotine]",transdermal movement of the active component,[1]; detected in donor reservoirs over NICODERM CQ samples,crossed the skin barrier
same,lateral diffusion to adjacent wells,[1]; donor reservoirs not located over samples,sufficiently slower than direct transdermal movement
same,Nicotine Concentration Of Diluted Test Aliquots,[1]; [4],2.2 mg/mL and 1.5 mg/mL and 2.6 mg/mL
same,Nicotine Concentration Of Original Test Aliquots,[1]; [4],22.0 mg/mL and 15.0 mg/mL and 26.0 mg/mL
same,Nicotine Accumulation in donor reservoir,"[1]; empty control location (B3, C1, D3), no sample: lateral diffusion, 2 hr",1.650 mg and 1.125 mg and 1.950 mg
same,Nicotine Concentration Of Diluted Test Aliquots,[1]; [5],2.5 mg/mL and 3.2 mg/mL and 4.0 mg/mL
same,Nicotine Concentration Of Original Test Aliquots,[1]; [5],25.0 mg/mL and 32.0 mg/mL and 40.0 mg/mL
same,Nicotine Accumulation in donor reservoir,"[1]; empty control location (B3, C1, D3), no sample: lateral diffusion, 3 hr",4.663 mg and 3.150 mg and 4.300 mg
same,Nicotine Concentration Of Diluted Test Aliquots,[1]; [6],4.8 mg/mL and 2.7 mg/mL and 4.2 mg/mL
same,Nicotine Concentration Of Original Test Aliquots,[1]; [6],48.0 mg/mL and 27.0 mg/mL and 42.0 mg/mL
same,Nicotine Accumulation in donor reservoir,"[1]; empty control location (B3, C1, D3), no sample: lateral diffusion, 4 hr",7.075 mg and 4.375 mg and 6.450 mg
same,Nicotine Accumulation in donor reservoir,"[1]; empty control location (B3, C1, D3), no sample: lateral diffusion, 5 hr",10.975 mg and 5.650 mg and 8.925 mg
same,Nicotine Concentration Of Diluted Test Aliquots,[1]; [7],1.0 mg/mL and 1.1 mg/mL
same,Nicotine Concentration Of Original Test Aliquots,[1]; [7],10.0 mg/mL and 11.0 mg/mL
same,Nicotine Accumulation in donor reservoir,"[1]; sample* (A4, D1): drug reservoir came off the backing with the release liner, 2 hr",0.825 mg and 0.750 mg
same,Nicotine Concentration Of Diluted Test Aliquots,[1]; [8],1.2 mg/mL and 1.4 mg/mL
same,Nicotine Concentration Of Original Test Aliquots,[1]; [8],12.0 mg/mL and 14.0 mg/mL
same,Nicotine Accumulation in donor reservoir,"[1]; sample* (A4, D1): drug reservoir came off the backing with the release liner, 3 hr",1.600 mg and 1.400 mg
same,Nicotine Concentration Of Diluted Test Aliquots,[1]; [9],1.4 mg/mL and 1.6 mg/mL
same,Nicotine Concentration Of Original Test Aliquots,[1]; [9],14.0 mg/mL and 16.0 mg/mL
same,Nicotine Accumulation in donor reservoir,"[1]; sample* (A4, D1): drug reservoir came off the backing with the release liner, 4 hr",2.450 mg and 2.150 mg
same,Nicotine Concentration Of Diluted Test Aliquots,[1]; [10],1.6 mg/mL and 1.8 mg/mL
same,Nicotine Concentration Of Original Test Aliquots,[1]; [10],16.0 mg/mL and 18.0 mg/mL
same,Nicotine Accumulation in donor reservoir,"[1]; sample* (A4, D1): drug reservoir came off the backing with the release liner, 5 hr",3.400 mg and 3.000 mg
CCCCCCCC/C=C\CCCCCCCC(=O)OCC(COC(=O)CCCCCCC/C=C\CCCCCCCC)OC(=O)CCCCCCC/C=C\CCCCCCCC [glycerol trioleate],corticosterone flux enhancement relative to the passive flux from PBS alone,[2],0.8
COC1=CC(=O)C[C@@H](C)[C@]12Oc1c(Cl)c(OC)cc(OC)c1C2=O [griseofulvin],Properties: absorption / water solubility,[3],Poor absorption due to its low water
CCCCCCCCCCCCCC(=O)OC(C)C [isopropyl myristate],corticosterone flux enhancement relative to the passive flux from PBS alone,[2],5
CC(=O)O[C@H]1C(=O)[C@@]2(C)[C@H]([C@H](OC(=O)c3ccccc3)[C@]3(O)C[C@H](OC(=O)[C@H](O)[C@@H](NC(=O)c4ccccc4)c4ccccc4)C(C)=C1C3(C)C)[C@]1(OC(C)=O)CO[C@@H]1C[C@@H]2O [paclitaxel],Properties: absorption / water solubility,[3],Poor absorption due to its low water
CC(C)c1nc(CN(C)C(=O)N[C@H](C(=O)N[C@@H](Cc2ccccc2)C[C@H](O)[C@H](Cc2ccccc2)NC(=O)OCc2cncs2)C(C)C)cs1 [ritonavir],Properties: polymorphic stability,[3]; shipping and storage,Can undergo a polymorphic shift during
CC(C)(C)NC(=O)[C@@H]1C[C@@H]2CCCC[C@@H]2CN1C[C@@H](O)[C@H](Cc1ccccc1)NC(=O)[C@H](CC(N)=O)NC(=O)c1ccc2ccccc2n1 [saquinavir],Properties: absorption / water solubility,[3],Poor absorption due to its low water
CCCc1nn(C)c2c(=O)[nH]c(-c3cc(S(=O)(=O)N4CCN(C)CC4)ccc3OCC)nc12 [sildenafil citrate],Properties: absorption / water solubility,[3],Poor absorption due to its low water
polyethylene glycol 200 dilaurate,corticosterone flux enhancement relative to the passive flux from PBS alone,[2],2
